Experimental data as given in patent US20110263451A1, “BIOLOGICAL MARKERS PREDICTIVE OF RHEUMATOID ARTHRITIS RESPONSE TO LYMPHOTOXIN ANTAGONISTS” (GENENTECH, INC, priority 2008, published 2011).

Test system: human CD4′ Th1 cells
Assay: TAPI-1 effect on soluble cytokines shed into culture supernatant of re-activated Th1 cells
Assay type: cell-based
Protocol: High Bind 96-well microtiter plates (Meso Scale Discovery (MSD), Gaithersburg, Md.) were spotted with 5 uL goat anti-human LTα clone AF211 (R&D Systems) diluted in PBS/0.05% Tween 20 (PBS/Tween) to 2 μg/ml, and incubated for one hour at room temperature. Wells were blocked with 150 uL PBS+5% BSA for 1-2 hours with agitation. Plates were washed 6× with PBS/Tween and a titration curve of recombinant human LTα3 (Genentech Inc.) controls, and test samples diluted in high salt assay diluent (HSAD: PBS, 0.5% BSA, 0.05% Tween 20, 0.25% CHAPS, 5 mM EDTA, 0.20% BgG, 0.35M NaCl, 10% FBS) were added at 25 μl/well and incubated for 2 hours with agitation. […] Plates were washed, 500 ng/mL Strepavidin-Sulgo-TAG® (MSD) diluted in AD was added at 25 μL/well, and plates were incubated for 30 minutes with agitation. Plates were washed with PBS/Tween 6×, and 150 μl/well of Read Buffer T (MSD) diluted 1:2 in H20 was added to wells. Plates were read on an MA6000 Sector™ Imager (MSD) according to manufacturer's. A weighted 4-parameter fit standard curve was plotted using XLFit (Guildford, UK) and values of unknowns were extrapolated.
Soluble human TNF-α, was detected using a human 96-well TNF-α kit (K111BHA-4, Meso Scale Discovery) according to manufacturer's instructions.
Total human CD4^+ T cells were isolated from PBMC with a CD4^+ T cell isolation kit (Miltenyi Biotec). Cells were cultured in complete DMEM media (DMEM supplemented with 10% FBS, 2 mM glutamine, 2 μM 2-ME, 1 mM sodium pyruvate, 100 U/ml penicillin and 100 μg/ml streptomycin) in presence of 5 μg/ml anti-CD3 mAb and 2 μg/ml anti-CD28 mAb. Human Th subset polarization conditions were as follows: Th0: 5 μg/ml anti-hIL-12, 5 μg/ml anti-hIFN-γ 1 μg/ml anti-hIL-4; Th1: 1 ng/ml rhIL-12, 10 ng/ml rhIFN-γ, 1 μg/ml anti-hIL-4; Th2: 5 ng/ml rhIL-4, 5 μg/ml anti-hIL-12, 6 μg/ml anti-hIFN-γ; Th17: 10 ng/ml rhIL-23, 10 μg/ml anti-hIL-12, 10 μg/ml anti-hIFN-γ. T cells were re-stimulated with 5 μg/mL anti-CD3 and 2 μg/mL anti-CD28 with indicated amount of TNFα protease inhibitor 1 (TAPI-1) (Peptides International) or DMSO as control.
At day1 and day2 after re-stimulation, cells were collected for FACS and RNA preparation; culture supernatants were collected for LT and TNF-α quantitation.
To determine if LTαβ complexes were shed by metalloproteinase cleavage, the TNFα protease inhibitor 1 (TAPI-1), known to inhibit the cleavage of TNFα by ADAM17 protease, was tested on human CD4′ Th1 cells. Culture supernatants were analyzed for solLTαβ, LTα3 and TNFα one day post re-activation in the presence or absence of TAPI-1 (FIGS. 2A & B). T cells were collected, cultured and polarized as in Example 2 above.

[1] = Th1 cells, 10 or 50 μM TAPI-1, 1 day post re-activation

## CC(C)C[C@H](CC(=O)NO)C(=O)N[C@@H](Cc1ccc2ccccc2c1)C(=O)N[C@@H](C)C(=O)NCCN [TAPI-1]
TAPI-1 treated Th1 cells, FACS, data not shown
  increase in cell surface LT: not accompanied by an increase in cell surface LT
[1]
  decrease of shed TNFα supernatant concentrations: 3-8 fold
  secreted LTα3 in supernatant: not affected
Th1 cells, 10 or 50 μM TAPI-1, 1 day post re-activation, dose dependent
  decrease of soluble LTαβ levels in supernatants of re-activated cells: 2-7 fold
